{"source": "the supplement of paper PMC3974653", "note": "Counter-ions that a name gives are not always drawn."}
{"system": "MTT (mouse pheochromocytoma)", "assay": "IC50 of cell viability (ATP content)", "settings": "(24 or 48 h)", "how_it_was_run": "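Each well of a white 1536-well plate received 5 µl of MTT mouse pheochromocytoma cells at 200,000 cells/ml in DMEM containing 5% FBS and 1% horse serum. After overnight culture at 37°C, 5% CO2, cells were exposed for 24 or 48 hrs to 23 nl of library compound in DMSO, pinned at 8 final concentrations from 0.5 nM to 46 µM. CellTiter-Glo luminescence was read after 15 minutes, and IC50 was obtained from a four-parameter logistic fit of signals normalised to positive-control and DMSO wells.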", "units": {"IC50 of cell viability": "µM"}}
{"smiles": "C[C@@H]1C[C@H]2[C@@H]3C[C@H](F)C/4=C/C(=O)/C=C\\[C@]4(C)[C@@]3(F)[C@@H](O)C[C@]2(C)[C@@]1(O)C(=O)COC(=O)C(C)(C)C", "note": "[Flumethasone pivalate]", "IC50 of cell viability": "> 46"}
{"smiles": "C[C@@H]1C[C@@H]2[C@@H]3C[C@@H](F)\\C4=C\\C(=O)\\C=C/[C@]4(C)[C@@]3(F)[C@H](O)C[C@@]2(C)[C@@]1(O)C(=O)CO", "note": "[Flumethasone]", "IC50 of cell viability": "> 46"}
{"smiles": "CC1(C)O[C@@H]2C[C@@H]3[C@@H]4C[C@@H](F)\\C5=C\\C(=O)\\C=C/[C@]5(C)[C@H]4[C@H](O)C[C@@]3(C)[C@]2(O1)C(=O)CO", "note": "[Flunisolide]", "IC50 of cell viability": "> 46"}
{"smiles": "CNC[C@H](O)[C@H](O)[C@H](O)[C@H](O)CO.Cc1c(Nc2ncccc2C(=O)O)cccc1C(F)(F)F", "note": "[Flunixin meglumine]", "IC50 of cell viability": "> 46"}
{"smiles": "CC1(C)O[C@@H]2C[C@H]3[C@@H]4C[C@H](F)C/5=C/C(=O)/C=C\\[C@]5(C)[C@@]4(F)[C@@H](O)C[C@]3(C)[C@@]2(O1)C(=O)CO", "note": "[Fluocinolone acetonide]", "IC50 of cell viability": "> 46"}
{"smiles": "O=C1OC2(c3ccc(O)cc3Oc3cc(O)ccc32)c2ccccc21", "note": "[Fluorescein (free acid)]", "IC50 of cell viability": "> 46"}
{"smiles": "O=C(O)c1ccccc1-c1c2ccc(=O)cc-2oc2cc(O)ccc12", "note": "[Fluorescein sodium]", "IC50 of cell viability": "> 46"}
{"smiles": "C[C@@H]\\1C[C@@H]2[C@H]3CC[C@](O)(C(C)=O)[C@]3(C)C[C@H](O)[C@]2(F)[C@@]4(C)\\C=C/C(=O)/C=C14", "note": "[Fluorometholone]", "IC50 of cell viability": "> 46"}
{"smiles": "CC1(O)CCC2C3CCC4=CC(=O)CCC4(C)C3(F)C(O)CC21C", "note": "(stereo not given) [Fluoxymesterone]", "IC50 of cell viability": "> 46"}
{"smiles": "CN1CCN(C2=Nc3cc(F)ccc3Cc3ccccc32)CC1", "note": "[Fluperlapine]", "IC50 of cell viability": "> 46"}
{"smiles": "CCOC(=O)Nc1ccc(NCc2ccc(F)cc2)nc1N", "note": "[Flupirtine maleate salt]", "IC50 of cell viability": "> 46"}
{"smiles": "CCOC(=O)Nc1ccc(NCc2ccc(F)cc2)nc1N.O=C(O)/C=C\\C(=O)O", "note": "[Flupirtine maleate]", "IC50 of cell viability": "> 46"}
{"smiles": "C=C1C[C@@H]2[C@H]3CCC4=CC(=O)C=C[C@]4(C)[C@@]3(F)[C@@H](O)C[C@]2(C)[C@]1(O)C(=O)COC(C)=O", "note": "[Fluprednidene acetate]", "IC50 of cell viability": "> 46"}
{"smiles": "C[C@]12C=CC(=O)C=C1[C@@H](F)C[C@@H]1[C@@H]2[C@@H](O)C[C@@]2(C)[C@H]1CC[C@]2(O)C(=O)CO", "note": "[Fluprednisolone]", "IC50 of cell viability": "> 46"}
{"smiles": "O=C(O)CCC/C=C\\C[C@@H]1[C@@H](/C=C/[C@@H](O)COc2cccc(C(F)(F)F)c2)[C@H](O)C[C@@H]1O", "note": "[Fluprostenol sodium]", "IC50 of cell viability": "> 46"}
{"smiles": "CC1(C)O[C@@H]2C[C@@H]3[C@@H]4C[C@@H](F)\\C5=C\\C(=O)CC[C@]5(C)[C@H]4[C@H](O)C[C@@]3(C)[C@]2(O1)C(=O)CO", "note": "[Flurandrenolide]", "IC50 of cell viability": "> 46"}
{"smiles": "CC(=O)O[C@H](C)OC(=O)[C@@H](C)c1ccc(-c2ccccc2)c(F)c1", "note": "[Flurbiprofen Axetil]", "IC50 of cell viability": "> 46"}
{"smiles": "C[C@@H](C(=O)O)c1ccc(-c2ccccc2)c(F)c1", "note": "[Flurbiprofen]", "IC50 of cell viability": "> 46"}
{"smiles": "NP(N)(=O)NC(=O)c1ccc(F)cc1", "note": "[Flurofamide]", "IC50 of cell viability": "> 46"}
{"smiles": "CC(=O)O[C@]1(C(C)=O)CCC2C3CCC4=CC(=O)CCC4(C)C3(F)C(O)CC21C", "note": "(stereo not given in full) [Flurogestone acetate]", "IC50 of cell viability": "> 46"}
{"smiles": "CC(C)C(=O)Nc1ccc([N+](=O)[O-])c(C(F)(F)F)c1", "note": "[Flutamide]", "IC50 of cell viability": "> 46"}
{"smiles": "CCC(=O)O[C@]1([C@@H](C)C[C@H]2[C@H]3C[C@@H](F)\\C4=C\\C(=O)\\C=C/[C@@]4(C)[C@@]3(F)[C@@H](O)C[C@]12C)C(=O)SCF", "note": "[Fluticasone propionate]", "IC50 of cell viability": "> 46"}
{"smiles": "CC(C)Oc1cccc(NC(=O)c2ccccc2C(F)(F)F)c1", "note": "[Flutolanil]", "IC50 of cell viability": "> 46"}
{"smiles": "C[N+]1(CCF)[C@@H]2CC[C@@H]1CC(OC(=O)C(O)(c1ccccc1)c1ccccc1)C2", "note": "(stereo not given in full) [Flutropium]", "IC50 of cell viability": "> 46"}
{"smiles": "CC(C)n1c(/C=C/[C@H](O)C[C@H](O)CC(=O)[O-])c(-c2ccc(F)cc2)c2ccccc21", "note": "[Fluvastatina]", "IC50 of cell viability": "> 46"}
{"smiles": "Nc1nc(O)c2nc(CNc3ccc(C(=O)N[C@@H](CCC(=O)O)C(=O)O)cc3)cnc2n1", "note": "[Folic acid]", "IC50 of cell viability": "> 46"}
{"smiles": "CN(CC(=O)[NH+]1CCOCC1)Cc1c(Cl)cccc1NC(=O)c1ccccc1", "note": "[Fominoben hydrochloride]", "IC50 of cell viability": "> 46"}
{"smiles": "CC(Cc1ccccc1)NC=O", "note": "(stereo not given) [Formetorex]", "IC50 of cell viability": "> 46"}
{"smiles": "COc1ccc(C[C@H](C)NC[C@@H](O)c2ccc(O)c(NC=O)c2)cc1", "note": "[Formoterol hemifumarate]", "IC50 of cell viability": "> 46"}
{"smiles": "NNC(=O)CP(=O)(c1ccccc1)c1ccccc1", "note": "[Fosenazida]", "IC50 of cell viability": "> 46"}
{"smiles": "O=P(O)(O)OC(Cn1cncn1)(Cn1cncn1)c1ccc(F)cc1F", "note": "[Fosfluconazole]", "IC50 of cell viability": "> 46"}
{"smiles": "C1CN(P2(N3CC3)=NP(N3CC3)(N3CC3)=NP(N3CC3)(N3CC3)=N2)CCO1", "note": "(stereo not given) [Fotretamine]", "IC50 of cell viability": "> 46"}
{"smiles": "COc1ccc2nc(NC(=O)Nc3ccccc3)sc2c1", "note": "[Frentizole]", "IC50 of cell viability": "> 46"}
{"smiles": "CN[C@@H]1CCc2[nH]c3ccc(C(N)=O)cc3c2C1.O.O=C(O)CCC(=O)O", "note": "[Frovatriptan Succinate Monohydrate]", "IC50 of cell viability": "> 46"}
{"smiles": "Cc1cccc(C)c1NC(=O)c1ccccc1C(=O)O", "note": "[Ftaxilida]", "IC50 of cell viability": "> 46"}
{"smiles": "CN1CCN(CCC(=O)N2c3ccccc3Sc3ccc(C(F)(F)F)cc32)CC1", "note": "[Ftormetazine]", "IC50 of cell viability": "> 46"}
{"smiles": "O=C(CCN1CCN(CCO)CC1)N1c2ccccc2Sc2ccc(C(F)(F)F)cc21", "note": "[Ftorpropazine]", "IC50 of cell viability": "> 46"}
{"smiles": "C[C@]12CC[C@@H]3c4ccc(O)cc4C[C@@H](CCCCCCCCC[S+]([O-])CCCC(F)(F)C(F)(F)F)C3[C@@H]1CC[C@@H]2O", "note": "(stereo not given in full) [Fulvestrant]", "IC50 of cell viability": "> 46"}
{"smiles": "CCCCCC(O)C1C(=O)OC(C)C(O)C=CC=CC=CC=CC=C(C)C(O)C(O)C(O)CC(O)CC(O)CC(O)CC(O)CC1O", "note": "(stereo not given) [Fungichromin]", "IC50 of cell viability": "> 46"}
{"smiles": "O=C1O[C@H](CN2CCOCC2)CN1/N=C\\c1ccc([N+](=O)[O-])o1", "note": "[Furaltadone hydrochloride]", "IC50 of cell viability": "> 46"}
{"smiles": "O=C1OCCN1/N=C/c1ccc([N+](=O)[O-])o1", "note": "[Furazolidone]", "IC50 of cell viability": "> 46"}
{"smiles": "O=Cc1ccco1", "note": "[Furfural]", "IC50 of cell viability": "> 46"}
{"smiles": "N[S+](=O)([O-])c1cc(C(=O)O)c(NCc2ccco2)cc1Cl", "note": "[Furosemide]", "IC50 of cell viability": "> 46"}
{"smiles": "C/C(=C(\\CCO)SSCC1CCCO1)N(C=O)Cc1cnc(C)nc1N", "note": "(stereo not given) [Fursultiamine]", "IC50 of cell viability": "> 46"}
{"smiles": "CCCCc1ccc(C(=O)O)nc1", "note": "[Fusaric acid]", "IC50 of cell viability": "> 46"}
{"smiles": "CC(=O)O[C@@H]1C[C@]2(C)[C@H](C[C@@H](O)[C@H]3[C@@]4(C)CC[C@@H](O)[C@@H](C)[C@@H]4CC[C@@]32C)/C1=C(\\CCC=C(C)C)C(=O)[O-].[Na+]", "note": "[Fusidic acid sodium salt]", "IC50 of cell viability": "> 46"}
{"smiles": "NCCCC(=O)O", "note": "[GABA]", "IC50 of cell viability": "> 46"}
{"smiles": "COC1=CC=C2CN(C)CC[C@@]34\\C=C/[C@H](O)C[C@@H]3OC1=C24", "note": "[GALANTHAMINE]", "IC50 of cell viability": "> 46"}
{"smiles": "CC[N+](CC)(CC)CCOc1cccc(OCC[N+](CC)(CC)CC)c1OCC[N+](CC)(CC)CC", "note": "[GALLAMINE]", "IC50 of cell viability": "> 46"}
{"smiles": "COc1cc(/C=C/C(=O)O[C@H]2CC[C@]34C[C@]35CC[C@]3(C)[C@@H]([C@H](C)CCC=C(C)C)CC[C@@]3(C)C5CCC4C2(C)C)ccc1O", "note": "(stereo not given in full) [GAMMA ORYZANOL]", "IC50 of cell viability": "> 46"}
{"smiles": "CC(=O)[C@H]1CC[C@H]2[C@@H]3CC[C@H]4C[C@](C)(O)CC[C@]4(C)[C@H]3CC[C@]12C", "note": "[GANAXOLONUM]", "IC50 of cell viability": "> 46"}
{"smiles": "COC1=C(N2CCNC(C)C2)C(=CC3=C1N(\\C=C(C(O)=O)/C3=O)C4CC4)F", "note": "(stereo not given) [GATIFLOXACIN]", "IC50 of cell viability": "> 46"}
{"smiles": "NC/1=N/C(=O)N(/C=C1)[C@@H]2O[C@H](CO)[C@@H](O)C2(F)F", "note": "[GEMCITABINE HYDROCHLORIDE]", "IC50 of cell viability": "> 46"}
{"smiles": "CO/N=C1\\CN(c2nc3c(cc2F)c(=O)c(C(=O)O)cn3C2CC2)CC1CN.C[S+](=O)([O-])O", "note": "(stereo not given) [GEMIFLOXACIN MESYLATE]", "IC50 of cell viability": "> 46"}
{"smiles": "CC(C)=CCC/C(C)=C/CO", "note": "[GERANIOL]", "IC50 of cell viability": "> 46"}
{"smiles": "C#C[C@]1(O)CC[C@H]2[C@@H]3CCC4=CC(=O)CCC4=C3C=C[C@@]21CC", "note": "[GESTRINONE]", "IC50 of cell viability": "> 46"}
{"smiles": "Oc1cc(O)c(Cl)cn1", "note": "[GIMERACIL]", "IC50 of cell viability": "> 46"}
{"smiles": "C\\C1=C\\C(=O)OC2=CC(=CC=C12)OCC#C", "note": "[GIPARMENUM]", "IC50 of cell viability": "> 46"}
{"smiles": "Cc1cnc(C(=O)NCCc2ccc([S+](=O)([O-])NC(=O)NC3CCCCC3)cc2)cn1", "note": "[GLIPIZIDE]", "IC50 of cell viability": "> 46"}
{"smiles": "O=C(O)[C@@H](O)[C@@H](O)[C@H](O)[C@H](O)CO", "note": "[GLUCONIC ACID, BARIUM SALT]", "IC50 of cell viability": "> 46"}
{"smiles": "O=C1OC(CO)C(O)C(O)C1O", "note": "(stereo not given) [GLUCONOLACTONE]", "IC50 of cell viability": "> 46"}
{"smiles": "Cl.N[C@@H]1C(O)OC(CO)C(O)C1O", "note": "(stereo not given in full) [GLUCOSAMINE HYDROCHLORIDE]", "IC50 of cell viability": "> 46"}
{"smiles": "NC(=O)[C@H]1O[C@@H](O)[C@H](O)[C@@H](O)[C@@H]1O", "note": "[GLUCURONAMIDE]", "IC50 of cell viability": "> 46"}
{"smiles": "NC(CCC(=O)N[C@@H](CS)C(=O)NCC(=O)O)C(=O)O", "note": "(stereo not given in full) [GLUTATHIONE]", "IC50 of cell viability": "> 46"}
{"smiles": "COc1ccc(Cl)cc1C(=O)NCCc1ccc([S+](=O)([O-])NC(=O)NC2CCCCC2)cc1", "note": "[GLYBURIDE]", "IC50 of cell viability": "> 46"}
